Experimental data taken from US20110158980A1, “METHODS TO TREAT AND SCREEN FOR AGENTS TO TREAT OBESITY” (TRUSTEES OF TUFTS COLLEGE, priority 2008, published 2011).

What was measured:
Type in all cases: cell-based
3T3-L1 adipocytes [1] = assay: Amino acid uptake or output of adipocytes (HPLC of spent medium); conditions: 20 mM OXA; day 12 post-induction; positive value = uptake
Protocol: (§1) 3T3-L1 preadipocytes were plated onto 24-well plates and expanded in preadipocyte growth medium consisting of DMEM supplemented with calf serum (10% v/v), penicillin and streptomycin. Medium was replenished every other day. Two days post-confluence, the cells were induced to differentiate using an adipogenic cocktail (1 μg/ml insulin, 0.5 mM isobutylmethylxanthine, and 1 μM dexamethasone) added to a basal medium (DMEM with 10% fetal bovine serum and penicillin/streptomycin). After 48 hrs, the first medium was replaced with a second induction medium consisting of the basal adipocyte medium supplemented with only insulin. […] This basal medium was replenished every other day during the remainder of the culture experiments.
(§2) Metabolite measurements were performed both on cell lysates and spent medium samples as described previously (Si Y, Yoon J, Lee K. American journal of physiology 2007; 292:E1637-46). Cells were lysed in situ with an 0.1% SDS buffer and sonicated. Immediately after collection, the spent medium samples were cleaned of cell debris by a brief centrifugation step. Free glycerol, TG and free fatty acids (FFAs) were measured using enzymatic assay kits (SIGMA™). Glucose and lactate concentrations were measured using the methods of Trinder (Trinder P. J Clin Pathol 1969; 22:158-61) and Loomis (Loomis M E. J Lab Clin Med 1961; 57:966-9), respectively. Amino acids were quantified by HPLC using fluorescence-based detection following pre-column derivatization of primary or secondary amines with 6-aminoquinolyl-N-hydroxysuccinimidyl-carbamate (Cohen S A, De Antonis K M. J Chromatogr A 1994; 661:25-34). All metabolite data were normalized by the corresponding cell sample DNA content, which was determined with a fluorescence-based assay using the Hoechst dye.

3T3-L1 adipocytes [2] = assay: Metabolic flux analysis (stoichiometric model) of adipocyte intermediary metabolism; conditions: day 12 post-induction
Protocol: as §1
A stoichiometric model of adipocyte central carbon metabolism was constructed as described previously (Si Y, Yoon J, Lee K. American journal of physiology 2007; 292:E1637-46). The model consisted of the major pathways of central carbon metabolism (Table 1). Intracellular fluxes were estimated by solving a constrained non-linear optimization problem with stoichiometric and thermodynamic constraints (Nolan R P, Fenley A P, Lee K. Metab Eng 2006; 8:30-45).

3T3-L1 adipocytes [3] = assay: Metabolite assays (TG, FFA, glucose, lactate, glycerol) on cell lysates and spent medium; conditions: 20 mM oxamate, day 12 post-induction
Protocol: as §1, §2

## NC(=O)C(=O)O [oxamate]
3T3-L1 adipocytes [1]
  ALA uptake or output: 0.6 ± 0.0 mmol/g-DNA/2 days
  ASN uptake or output: −1.1 ± 0.2 mmol/g-DNA/2 days
  ASP uptake or output: 0.0 ± 0.0 mmol/g-DNA/2 days
  GLN uptake or output: −12.0 ± 1.5 mmol/g-DNA/2 days
  GLU uptake or output: 0.4 ± 0.0 mmol/g-DNA/2 days
  GLY uptake or output: −5.9 ± 0.4 mmol/g-DNA/2 days
  HIS uptake or output: −0.2 ± 0.1 mmol/g-DNA/2 days
  ILE uptake or output: 6.1 ± 0.3 mmol/g-DNA/2 days
  LEU uptake or output: 6.8 ± 0.3 mmol/g-DNA/2 days
  LYS uptake or output: −2.0 ± 0.3 mmol/g-DNA/2 days
  MET uptake or output: 0.0 ± 0.0 mmol/g-DNA/2 days
  PHE uptake or output: −0.3 ± 0.1 mmol/g-DNA/2 days
  PRO uptake or output: −0.5 ± 0.0^ mmol/g-DNA/2 days
  SER uptake or output: 4.0 ± 0.2 mmol/g-DNA/2 days
  THR uptake or output: −1.4 ± 0.3^ mmol/g-DNA/2 days
  TYR uptake or output: −0.3 ± 0.1 mmol/g-DNA/2 days
  VAL uptake or output: 3.3 ± 0.2 mmol/g-DNA/2 days
3T3-L1 adipocytes [2]; OXA 20 mM
  Flux RXN 1 Glycolysis: Glucose + ATP = Glucose 6-P + ADP: 212.3 ± 15.3 mmol/g-DNA/2 days
  Flux RXN 2 Glycolysis: Glucose 6-P = Fructose 6-P: 205.0 ± 14.2 mmol/g-DNA/2 days
  Flux RXN 3 Glycolysis: Fructose 6-P + ATP = Glyceraldehyde 3-P + Glycerone-P + ADP: 209.9 ± 14.8 mmol/g-DNA/2 days
  Flux RXN 4 Glycolysis: Glycerone-P = Glyceraldehyde 3-P: 187.8 ± 13.9 mmol/g-DNA/2 days
  Flux RXN 5 Glycolysis: Glyceraldehyde 3-P + NAD+ + ADP + Pi = P-Enolpyruvate + ATP + H2O: 400.1 ± 28.6 mmol/g-DNA/2 days
  Flux RXN 6 Glycolysis: P-Enolpyruvate + ADP + H+ = Pyruvate + ATP: 463.5 ± 35.6 mmol/g-DNA/2 days
  Flux RXN 7 Glycolysis: Pyruvate + NADH + H+ = Lactate + NAD+: 119.2 ± 9.1 mmol/g-DNA/2 days
  Flux RXN 8 Pentose phosphate pathway: Glucose 6-P + 2 NADP+ + H2O = Ribulose 5-P + CO2 + 2 NADPH + 2 H+: 7.3 ± 4.6 mmol/g-DNA/2 days
  Flux RXN 9 Pentose phosphate pathway: 3 Ribulose 5-P = 2 Fructose 6-P + Glyceraldehyde 3-P: 2.4 ± 1.5 mmol/g-DNA/2 days
  Flux RXN 10 TCA cycle (mitochondria) (PDC): 290.4 ± 25.6 mmol/g-DNA/2 days
  Flux RXN 11 TCA cycle (mitochondria) (PC): 109.1 ± 31.7 mmol/g-DNA/2 days
  Flux RXN 12 TCA cycle (mitochondria): 185.0 ± 19.7 mmol/g-DNA/2 days
  Flux RXN 13 TCA cycle (mitochondria): 226.7 ± 26.2 mmol/g-DNA/2 days
  Flux RXN 14 TCA cycle (mitochondria): 236.0 ± 26.3 mmol/g-DNA/2 days
  Flux RXN 15 TCA cycle (mitochondria): 236.0 ± 26.3 mmol/g-DNA/2 days
  Flux RXN 16 TCA cycle (mitochondria): 181.2 ± 40.8 mmol/g-DNA/2 days
  Flux RXN 17 TCA cycle: Citrate + CoA + ATP = Acetyl-CoA + Oxaloacetate + ADP + Pi: 63.7 ± 12.9 mmol/g-DNA/2 days
  Flux RXN 18 TCA cycle: Oxaloacetate + NADH + H+ = Malate + NAD+: 0.3 ± 0.8 mmol/g-DNA/2 days
  Flux RXN 19 TCA cycle: Malate + NADP+ = Pyruvate + CO2 + NADPH: 55.2 ± 20.8 mmol/g-DNA/2 days
  Flux RXN 20 TCA cycle: Citrate + NADP+ = 2-Oxoglutarate + CO2 + NADPH + H+: 41.6 ± 9.1 mmol/g-DNA/2 days
  Flux RXN 21 TCA cycle: Oxaloacetate + ATP = P-Enolpyruvate + CO2 + ADP: 63.4 ± 12.9 mmol/g-DNA/2 days
  Flux RXN 22 Oxidative phosphorylation (NADH + 0.5 O2): 770.4 ± 108.2 mmol/g-DNA/2 days
  Flux RXN 23 Oxidative phosphorylation (FADH2 + 0.5 O2): 252.2 ± 26.4 mmol/g-DNA/2 days
  Flux RXN 24 Palmitate biosynthesis: 8.0 ± 1.6 mmol/g-DNA/2 days
  Flux RXN 25 Tripalmitoylglycerol biosynthesis: Glycerone-P + 3 Palmitate to Tripalmitoylglycerol: 22.1 ± 4.8 mmol/g-DNA/2 days
  Flux RXN 26 Tripalmitoylglycerol + 3 H2O = Glycerol + 3 Palmitate: 19.8 ± 4.4 mmol/g-DNA/2 days
  Flux RXN 27 Tripalmitoylglycerol accumulation: 2.3 ± 0.5 mmol/g-DNA/2 days
  Flux RXN 28 Metabolism of ketone bodies: 6.4 ± 0.3 mmol/g-DNA/2 days
  Flux RXN 29 Metabolism of ketone bodies: 0.0 ± 0.0 mmol/g-DNA/2 days
  Flux RXN 30 Metabolism of ketone bodies (to 3-Hydroxybutyrate): 10.8 ± 2.2 mmol/g-DNA/2 days
  Flux RXN 31 Amino acid metabolism: Pyruvate + NH4+ + NADPH = Alanine: 0.0 ± 0.0 mmol/g-DNA/2 days
  Flux RXN 32 Amino acid metabolism: Aspartate + NH4+ = Asparagine: 0.6 ± 0.1 mmol/g-DNA/2 days
  Flux RXN 33 Amino acid metabolism: Aspartate = Oxaloacetate + NH4+ + NADH: 0.0 ± 0.0 mmol/g-DNA/2 days
  Flux RXN 34 Amino acid metabolism: Cysteine = Pyruvate + NH4+ + NADH: 0.0 ± 0.0 mmol/g-DNA/2 days
  Flux RXN 35 Amino acid metabolism: Glutamate = 2-Oxoglutarate + NH4+ + NADH: 0.0 ± 0.0 mmol/g-DNA/2 days
  Flux RXN 36 Amino acid metabolism: Glutamate + NH4+ + ATP = Glutamine: 8.0 ± 1.0 mmol/g-DNA/2 days
  Flux RXN 37 Amino acid metabolism: Serine + THF = Glycine: 5.0 ± 0.3 mmol/g-DNA/2 days
  Flux RXN 38 Amino acid metabolism: Histidine + THF = Glutamate + NH4+: 4.1 ± 0.5 mmol/g-DNA/2 days
  Flux RXN 39 Amino acid metabolism: Isoleucine + 2 CoA: 6.1 ± 0.3 mmol/g-DNA/2 days
  Flux RXN 40 Amino acid metabolism: Leucine + CoA + CO2 + ATP: 6.8 ± 0.3 mmol/g-DNA/2 days
  Flux RXN 41 Amino acid metabolism: Lysine = 2-Oxoadipate + 2 NH4+ + 3 NADH: 0.0 ± 0.0 mmol/g-DNA/2 days
  Flux RXN 42 Amino acid metabolism: 2-Oxoadipate + CoA: 0.0 ± 0.0 mmol/g-DNA/2 days
  Flux RXN 43 Amino acid metabolism: Methionine + Serine + ATP + CoA + THF: 0.0 ± 0.0 mmol/g-DNA/2 days
  Flux RXN 44 Amino acid metabolism: Phenylalanine + O2 + NADH = Tyrosine: 0.0 ± 0.0 mmol/g-DNA/2 days
  Flux RXN 45 Amino acid metabolism: Glutamate + ATP + 2 NADPH = Proline: 0.0 ± 0.0 mmol/g-DNA/2 days
  Flux RXN 46 Amino acid metabolism: Serine = Pyruvate + NH4+: 0.0 ± 0.0 mmol/g-DNA/2 days
  Flux RXN 47 Amino acid metabolism: Threonine + CoA to Glycine: 0.0 ± 0.0 mmol/g-DNA/2 days
  Flux RXN 48 Amino acid metabolism: Tryptophan + 3 O2 + NADPH = 2-Oxoadipate + Alanine + CO2 + NH4+: 0.0 ± 0.0 mmol/g-DNA/2 days
  Flux RXN 49 Amino acid metabolism: Tyrosine + 2 O2: 0.0 ± 0.0 mmol/g-DNA/2 days
  Flux RXN 50 Amino acid metabolism: Valine + CoA: 3.3 ± 0.2 mmol/g-DNA/2 days
  Flux RXN 51 Plasma exchange: Palmitate: 1.0 ± 0.1 mmol/g-DNA/2 days
  Flux RXN 52 Plasma exchange: Acetoacetate: 2.4 ± 1.9 mmol/g-DNA/2 days
  Flux RXN 53 Plasma exchange: Alanine: 0.0 ± 0.0 mmol/g-DNA/2 days
  Flux RXN 54 Plasma exchange: Aspartate: 0.6 ± 0.1 mmol/g-DNA/2 days
  Flux RXN 55 Plasma exchange: Cysteine: 0.0 ± 0.0 mmol/g-DNA/2 days
  Flux RXN 56 Plasma exchange: Glutamate: 3.9 ± 0.5 mmol/g-DNA/2 days
  Flux RXN 57 Plasma exchange: Glycine: 5.0 ± 0.3 mmol/g-DNA/2 days
  Flux RXN 58 Plasma exchange: Serine: 5.0 ± 0.3 mmol/g-DNA/2 days
  Flux RXN 59 Plasma exchange: Tyrosine: 0.0 ± 0.0 mmol/g-DNA/2 days
  Flux RXN 60 Plasma exchange: O2 (calculated oxygen uptake rate): 511.3 ± 67.1 mmol/g-DNA/2 days
  Flux RXN 61 Plasma exchange: CO2: 756.9 ± 75.2 mmol/g-DNA/2 days
  Flux RXN 62 Plasma exchange: NH4+: 11.7 ± 0.5 mmol/g-DNA/2 days
  Flux RXN 63 Mitochondrial exchange: Pyruvate: 399.5 ± 40.8 mmol/g-DNA/2 days
  Flux RXN 64 Mitochondrial exchange: Malate in, Citrate out: 105.3 ± 13.9 mmol/g-DNA/2 days
  Flux RXN 65 Mitochondrial exchange: 2-Oxoglutarate in, Malate out: 41.6 ± 9.1 mmol/g-DNA/2 days
  Flux RXN 66 Mitochondrial exchange: Pi in, Malate out: 54.8 ± 20.5 mmol/g-DNA/2 days
3T3-L1 adipocytes [2]; oxamate
  Decrease of PC flux: 41%
  Decrease of citrate transport out of the mitochondria: 44%
  Decrease of de novo fatty acid synthesis: 49%
  Decrease of flux through glycolysis: 17˜26%
  Decrease of flux through the pentose phosphate pathway (PPP): 82%
  Decrease of pyruvate flux entering the TCA cycle: 21%
  Increase of lipolysis: 131%
  Increase of triglyceride synthesis: 65%
  Reduction of net triglyceride accumulation: 52%
3T3-L1 adipocytes [3]
  Glycerol output raised: 1.3 fold
  Reduction of glucose uptake: 20%
3T3-L1 adipocytes [3]; Mus musculus, 3T3-L1, vs untreated control, read-out: Inhibition of lactate output
  inhibition at 20000 µM: 40%
